Experimental data reported in patent US12310364B2, “Safened compositions comprising pyridine carboxylate herbicides and cloquintocet” (Corteva Agriscience LLC, priority 2018, dated 2025).

How the values were obtained:
Assay type in all cases: in vivo
[1] = test system: Hordeum vulgare (winter barley), HORVW; experiment: Greenhouse postemergence safening trial, visual injury on winter barley; conditions: safener alone 40 g/ha
Protocol: (§1) Greenhouse Trial Methodology-Evaluation of Postemergence Herbicidal […] in Crops […] When required to ensure good germination and healthy plants, a fungicide treatment and/or other chemical or physical treatment was applied. The plants were grown for 7-36 days (d) in a greenhouse with an approximate 14-hour (h) photoperiod which was maintained at about 23° C. during the day and 22° C. during the night. Nutrients and water were added on a regular basis and supplemental lighting was provided with overhead metal halide 1000-Watt lamps as necessary. The plants were employed for testing when they reached the second or third true leaf stage. Emulsifiable concentrates of each of each pyridine carboxylate herbicide (Compound A or Compound B) were prepared at 100 grams acid equivalent per liter (g ae/L). […] The concentrated stock solutions were further diluted with an aqueous mixture of 1.25% […] or MSO® Concentrate with LECI-TECH® to obtain stock solutions at reduced application rates for each herbicide. Spray solutions of the herbicide combinations (Compound A or Compound B plus safener) were prepared by adding weighed amounts or aliquots of the safener to the stock solutions of Compound A or Compound B to form 12-mL spray solutions in two-way combinations. […] Control plants were sprayed in the same manner with the solvent blank. All herbicide (component a) application rates are given as “g ae/ha” and all safener (component b) application rates are given as “g ai/ha.” The treated plants and control plants were placed in a greenhouse as described above and watered by sub-irrigation to prevent wash-off of the test compounds.

[2] = test system: Salsola kali (Russian thistle), SASKR; experiment: Greenhouse postemergence trial, visual injury on Russian thistle
Protocol: as §1

[3] = test system: Triticum aestivum (spring wheat), TRZAS; experiment: Greenhouse postemergence safening trial, visual injury on spring wheat
Protocol: as §1

[4] = test system: Triticum aestivum (durum wheat), TRZDU; experiment: Greenhouse postemergence safening trial, visual injury on durum wheat; conditions: safener alone 40 g/ha
Protocol: as §1

[5] = test system: Avena sativa (common oat), AVESA; experiment: Greenhouse postemergence safening trial, visual injury on common oat; conditions: safener alone 40 g/ha
Protocol: as §1

[6] = test system: Matricaria chamomilla (wild chamomile), MATCH; experiment: Greenhouse postemergence trial, visual injury on wild chamomile
Protocol: as §1

[7] = test system: Hordeum vulgare (spring barley), HORVS; experiment: Greenhouse postemergence safening trial, visual injury on spring barley
Protocol: as §1

[8] = test system: Triticum aestivum (winter wheat), TRZAW; experiment: Greenhouse postemergence safening trial, visual injury on winter wheat; conditions: safener alone 40 g/ha
Protocol: as §1

[9] = test system: Brassica napus (winter rape), BRSNW; experiment: Greenhouse postemergence trial, visual injury on winter rape
Protocol: as §1

CNC.O=C(O)COc1ccc(Cl)c2cccnc12 [CQC-DMA, cloquintocet-dimethylammonium salt]
0%: % visual injury, Ob [1] | % visual injury, Ob ([2]; safener alone 10 g/ha) | % visual injury, Ob ([2]; safener alone 20 g/ha) | % visual injury, Ob ([2]; safener alone 40 g/ha) | % visual injury, Ob ([3]; safener alone 10 g/ha) | % visual injury, Ob ([3]; safener alone 20 g/ha) | % visual injury, Ob ([3]; safener alone 40 g/ha) | % visual injury, Ob [4] | % visual injury, Ob [5] | % visual injury, Ob ([6]; safener alone 10 g/ha) | % visual injury, Ob ([6]; safener alone 20 g/ha) | % visual injury, Ob ([6]; safener alone 40 g/ha) | % visual injury, Ob ([7]; safener alone 10 g/ha) | % visual injury, Ob ([7]; safener alone 20 g/ha) | % visual injury, Ob ([7]; safener alone 40 g/ha) | % visual injury Δ [8] | % visual injury, Ob [8] | % visual injury, Ob ([9]; safener alone 10 g/ha) | % visual injury, Ob ([9]; safener alone 20 g/ha) | % visual injury, Ob ([9]; safener alone 40 g/ha)

CCN(CC)CC.O=C(O)COc1ccc(Cl)c2cccnc12 [CQC-TEA, cloquintocet-triethylamine salt]
0%: % visual injury Δ [1] | % visual injury, Ob [1] | % visual injury, Ob ([2]; safener alone 10 g/ha) | % visual injury, Ob ([2]; safener alone 20 g/ha) | % visual injury, Ob ([2]; safener alone 40 g/ha) | % visual injury, Ob ([3]; safener alone 10 g/ha) | % visual injury, Ob ([3]; safener alone 20 g/ha) | % visual injury, Ob ([3]; safener alone 40 g/ha) | % visual injury, Ob [4] | % visual injury, Ob [5] | % visual injury, Ob ([6]; safener alone 10 g/ha) | % visual injury, Ob ([6]; safener alone 20 g/ha) | % visual injury, Ob ([6]; safener alone 40 g/ha) | % visual injury, Ob ([7]; safener alone 10 g/ha) | % visual injury, Ob ([7]; safener alone 20 g/ha) | % visual injury, Ob ([7]; safener alone 40 g/ha) | % visual injury, Ob [8] | % visual injury, Ob ([9]; safener alone 10 g/ha) | % visual injury, Ob ([9]; safener alone 20 g/ha) | % visual injury, Ob ([9]; safener alone 40 g/ha)

CC(O)CN(CC(C)O)CC(C)O.O=C(O)COc1ccc(Cl)c2cccnc12 [CQC-TIPA, cloquintocet-triisopropanolamine salt]
0%: % visual injury, Ob ([2]; safener alone 10 g/ha) | % visual injury, Ob ([2]; safener alone 20 g/ha) | % visual injury, Ob ([2]; safener alone 40 g/ha) | % visual injury, Ob ([3]; safener alone 10 g/ha) | % visual injury, Ob ([3]; safener alone 20 g/ha) | % visual injury, Ob ([3]; safener alone 40 g/ha) | % visual injury, Ob ([6]; safener alone 10 g/ha) | % visual injury, Ob ([6]; safener alone 20 g/ha) | % visual injury, Ob ([6]; safener alone 40 g/ha) | % visual injury, Ob ([7]; safener alone 10 g/ha) | % visual injury, Ob ([7]; safener alone 20 g/ha) | % visual injury, Ob ([7]; safener alone 40 g/ha) | % visual injury, Ob ([9]; safener alone 10 g/ha) | % visual injury, Ob ([9]; safener alone 20 g/ha) | % visual injury, Ob ([9]; safener alone 40 g/ha)
